Activity calls are given as the source filed them. No cut-off for these calls is given here.
Experiments:
[1] = biological target: T1, MAOB (amine oxidase [flavin-containing] B) (Homo sapiens, UniProt P27338); test: Inhibition of MAOB (unknown origin) using luminogenic substrate at 10 uM incubated for 1 hr by luminescence based assay relative to control; conditions: MAOB enzyme (unknown origin), probe luminogenic substrate
T1 sequence (P27338 whole entry): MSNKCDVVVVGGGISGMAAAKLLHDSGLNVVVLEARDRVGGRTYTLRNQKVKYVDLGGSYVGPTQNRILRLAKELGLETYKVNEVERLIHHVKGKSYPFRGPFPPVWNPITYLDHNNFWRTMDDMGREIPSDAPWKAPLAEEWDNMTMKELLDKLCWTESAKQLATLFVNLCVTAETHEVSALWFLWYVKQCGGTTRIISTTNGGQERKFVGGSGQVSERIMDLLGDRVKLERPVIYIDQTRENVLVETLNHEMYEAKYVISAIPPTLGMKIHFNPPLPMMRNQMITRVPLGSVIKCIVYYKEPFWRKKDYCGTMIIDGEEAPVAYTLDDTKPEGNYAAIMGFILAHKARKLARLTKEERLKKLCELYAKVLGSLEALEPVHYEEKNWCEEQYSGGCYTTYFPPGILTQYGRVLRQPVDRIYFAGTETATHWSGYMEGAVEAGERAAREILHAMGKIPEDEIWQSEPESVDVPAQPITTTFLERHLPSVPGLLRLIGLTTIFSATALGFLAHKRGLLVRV

[2] = biological target: T2, MAOA (amine oxidase [flavin-containing] A) (Homo sapiens, UniProt P21397); test: Inhibition of MAOA (unknown origin) using luminogenic substrate at 10 uM incubated for 1 hr by luminescence based assay relative to control; conditions: MAOA enzyme (unknown origin), probe luminogenic substrate
T2 sequence (P21397 whole entry): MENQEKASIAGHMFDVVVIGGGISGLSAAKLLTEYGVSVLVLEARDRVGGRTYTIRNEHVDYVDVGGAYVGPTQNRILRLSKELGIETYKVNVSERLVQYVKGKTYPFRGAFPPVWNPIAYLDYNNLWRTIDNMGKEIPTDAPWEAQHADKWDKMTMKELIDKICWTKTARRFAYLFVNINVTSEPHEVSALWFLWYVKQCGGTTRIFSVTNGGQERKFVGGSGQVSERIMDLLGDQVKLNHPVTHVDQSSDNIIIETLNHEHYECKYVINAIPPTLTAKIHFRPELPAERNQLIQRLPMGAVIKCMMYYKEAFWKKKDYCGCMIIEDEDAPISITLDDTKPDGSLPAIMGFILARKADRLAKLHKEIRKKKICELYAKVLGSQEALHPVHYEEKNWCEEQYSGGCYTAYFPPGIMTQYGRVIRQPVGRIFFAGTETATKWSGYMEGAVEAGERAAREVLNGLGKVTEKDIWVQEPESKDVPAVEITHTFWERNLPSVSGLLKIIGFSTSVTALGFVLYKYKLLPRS

Spermine oxidase [3] = biological target: T3, Spermine oxidase (Homo sapiens, UniProt Q9NWM0); test: Inhibition of SMOX (unknown origin) assessed as decrease in spermidine formation using spermine as substrate treated with compound 2 mins prior to substrate addition followed by further incubation for 1 hr by HPLC analysis
[4] = biological target: T4, Amine oxidase [flavin-containing] A (Homo sapiens, UniProt P21397); test: Inhibition of MAOA (unknown origin) using luminogenic substrate incubated for 1 hr by luminescence based assay
T4 sequence (P21397 whole entry): T2 sequence (P21397 whole entry)

Spermine oxidase [5] = biological target: T3, Spermine oxidase; test: Inhibition of SMOX (unknown origin) assessed as decrease in spermidine formation using spermine as substrate at 10 uM treated with compound 2 mins prior to substrate addition followed by further incubation for 1 hr by HPLC analysis relative to control
LSD1/CoREST complex = LSD1/CoREST complex (Homo sapiens, UniProt O60341); test: Inhibition of recombinant LSD1/CoREST (unknown origin) incubated for 30 mins to 4 hrs by fluorescence based assay; format: protein-complex assay
[6] = biological target: T5, Amine oxidase [flavin-containing] B (Homo sapiens, UniProt P27338); test: Inhibition of MAOB (unknown origin) using luminogenic substrate incubated for 1 hr by luminescence based assay
T5 sequence (P27338 whole entry): T1 sequence (P27338 whole entry)

[7] = biological target: Peroxisomal N(1)-acetyl-spermine/spermidine oxidase (Homo sapiens, UniProt Q6QHF9); test: Inhibition of PAOX (unknown origin) assessed as decrease in spermidine formation using N-acetylspermine as substrate treated with compound 2 mins prior to substrate addition followed by further incubation for 1 hr by HPLC analysis
BXPC-3 [8] = test: Antiproliferative activity against human BxPC3 cells assessed as reduction in cell growth at 10 to 100 uM incubated for 72 hrs by MTS assay relative to control; format: functional
cells = conditions: Homo sapiens, MIA PaCa-2, 72 h
Description: Antiproliferative activity against human MiaPaCa cells assessed as reduction in cell growth incubated for 72 hrs by MTS assay

BXPC-3 [9] = test: cells; conditions: Homo sapiens, BXPC-3, 72 h
Description: Antiproliferative activity against human BxPC3 cells assessed as reduction in cell growth incubated for 72 hrs by MTS assay

Spermine oxidase [10] = biological target: T3, Spermine oxidase; test: Potency index, ratio of MDL72527 IC50 to compound IC50 for SMOX (unknown origin) using spermine as substrate treated with compound 2 mins prior to substrate addition followed by further incubation for 1 hr by HPLC analysis
RAW264.7 = test: Inhibition of reactive oxygen species formation in mouse RAW264.7 cells infected with Helicobacter pylori; format: functional, cell-based

Sequence of Peroxisomal N(1)-acetyl-spermine/spermidine oxidase (Q6QHF9 whole entry): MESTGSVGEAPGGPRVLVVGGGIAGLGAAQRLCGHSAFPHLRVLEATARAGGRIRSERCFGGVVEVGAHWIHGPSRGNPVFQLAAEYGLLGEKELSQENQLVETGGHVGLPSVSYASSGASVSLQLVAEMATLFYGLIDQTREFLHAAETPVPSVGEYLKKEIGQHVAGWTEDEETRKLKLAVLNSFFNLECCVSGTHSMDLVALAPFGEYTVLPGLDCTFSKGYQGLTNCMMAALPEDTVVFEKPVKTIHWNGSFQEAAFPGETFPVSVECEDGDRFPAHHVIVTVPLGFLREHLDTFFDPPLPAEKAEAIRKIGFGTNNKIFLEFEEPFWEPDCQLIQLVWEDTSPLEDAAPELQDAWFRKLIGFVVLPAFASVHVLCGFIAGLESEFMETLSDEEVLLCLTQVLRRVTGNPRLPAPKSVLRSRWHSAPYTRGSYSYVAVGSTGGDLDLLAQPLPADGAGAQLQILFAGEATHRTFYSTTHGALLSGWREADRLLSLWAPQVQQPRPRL
T3 sequence (Q9NWM0 whole entry): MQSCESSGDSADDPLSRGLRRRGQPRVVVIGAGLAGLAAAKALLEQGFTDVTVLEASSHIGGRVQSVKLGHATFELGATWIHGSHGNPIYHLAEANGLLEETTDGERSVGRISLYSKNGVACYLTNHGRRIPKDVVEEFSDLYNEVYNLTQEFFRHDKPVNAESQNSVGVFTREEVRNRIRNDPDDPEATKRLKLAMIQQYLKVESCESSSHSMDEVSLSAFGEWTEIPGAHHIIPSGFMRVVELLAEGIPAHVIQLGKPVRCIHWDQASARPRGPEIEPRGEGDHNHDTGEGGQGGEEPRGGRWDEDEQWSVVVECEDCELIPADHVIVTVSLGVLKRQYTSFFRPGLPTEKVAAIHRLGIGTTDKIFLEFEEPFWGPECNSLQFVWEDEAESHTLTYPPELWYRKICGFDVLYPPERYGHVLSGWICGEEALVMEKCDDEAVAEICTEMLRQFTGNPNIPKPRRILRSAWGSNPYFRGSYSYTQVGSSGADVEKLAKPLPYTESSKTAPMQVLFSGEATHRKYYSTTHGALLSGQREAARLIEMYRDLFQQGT

SMILES | inhibition at 1 h, 10 µM [1] | inhibition at 1 h, 10 µM [2] | IC50 (Spermine oxidase [3]) | IC50 [4] | inhibition (Spermine oxidase [5]) | IC50 (LSD1/CoREST complex) | IC50 [6] | IC50 [7] | inhibition (INH) (BXPC-3 [8]) | IC50 (cells) | IC50 (BXPC-3 [9]) | Ratio IC50 (Spermine oxidase [10]) | inhibition (RAW264.7)
C=C=CCNCCCCNCC=C=C | 0% | 0% | 89.7 µM | > 200 µM | 4.8% | > 100 µM | > 200 µM | – | – | – | – | – | –
Cc1cc(C)cc(Oc2ccccc2CNc2nc(N)n[nH]2)c1 | 83.4% | – | > 200 µM | 91.4 µM | 0% | – | – | > 200 µM | – | – | – | – | –
Cc1cccc(Oc2ccccc2CNc2nc(N)n[nH]2)c1C | 68.6% | 0% | > 200 µM | > 200 µM | 0% | – | – | > 200 µM | – | – | – | – | –
Nc1ccn([C@@H]2O[C@H](CO)[C@@H](O)C2(F)F)c(=O)n1 [GEMCITABINE] | – | – | – | – | – | – | – | – | 30% | 1.86 µM | 5.71 µM | – | –
Nc1n[nH]c(NCc2ccccc2Oc2ccc3ccccc3c2)n1 | 81.6% | – | > 200 µM | 79.2 µM | 0% | – | – | > 200 µM | – | – | – | – | –
Nc1n[nH]c(NCc2ccccc2Oc2ccc(F)cc2)n1 | 40.7% | – | > 200 µM | 89.3 µM | 0% | – | – | > 200 µM | – | – | – | – | –
Nc1n[nH]c(NCc2c(Cl)cccc2Oc2ccc3ccccc3c2)n1 | 0% | 0% | 163 µM | > 200 µM | 23.6% | – | > 200 µM | – | – | – | – | – | –
CC(C)(C)c1ccc(Oc2ccccc2CNc2nc(N)n[nH]2)cc1 | 32.3% | – | > 200 µM | 61.5 µM | 0% | – | – | > 200 µM | – | – | – | – | –
COc1cc(OC)cc(Oc2ccccc2CNc2nc(N)n[nH]2)c1 | 17.1% | 0% | > 200 µM | > 200 µM | 0% | – | – | > 200 µM | – | – | – | – | –
N[C@@H]1C[C@H]1c1ccccc1.N[C@H]1C[C@@H]1c1ccccc1 | – | – | – | – | 0% | – | – | – | – | – | – | – | –
Nc1n[nH]c(NCc2ccccc2Oc2ccc(-c3ccccc3)cc2)n1 | 26.4% | – | 25.7 µM | 50 µM | 25.7% | – | – | > 200 µM | – | 30 to 200 µM | 61.5 µM | 3.5 | –
Cc1ccc(C(C)C)c(Oc2ccccc2CNc2nc(N)n[nH]2)c1 | 49.7% | – | > 200 µM | 55.5 µM | 13.9% | – | – | > 200 µM | – | – | – | – | –
Nc1nnc(NCc2c(Cl)cccc2Oc2ccccc2)[nH]1 | 0% | 0% | 178 µM | > 200 µM | 28% | – | > 200 µM | – | – | 2.66 µM | – | – | Active
Nc1n[nH]c(NCc2ccccc2Oc2ccccc2)n1 | 18.8% | – | > 200 µM | 50.2 µM | 0% | – | – | > 200 µM | – | – | – | – | –
CSc1ccc(Oc2ccccc2CNc2nc(N)n[nH]2)cc1 | 31.7% | – | > 200 µM | 38.4 µM | 0% | – | – | > 200 µM | – | – | – | – | –
Nc1n[nH]c(NCc2ccccc2Oc2ccc(Br)cc2C(F)(F)F)n1 | 90.1% | – | 121 µM | 3 µM | 0% | – | – | > 200 µM | – | 30 to 200 µM | > 100 µM | – | –
Nc1n[nH]c(NCc2c(Cl)cccc2Oc2cccc3ccccc23)n1 | 7.12% | 0% | 148 µM | > 200 µM | 19% | 0.19 to 0.23 µM | > 200 µM | – | – | 30 to 200 µM | > 100 µM | – | –

— ChEMBL document CHEMBL4373629, “Dual inhibitors of LSD1 and spermine oxidase” (Medchemcomm, 2019)
